Measured values reported in patent US6162799A, “Pesticidal compounds” (BTG International Limited, priority 1995, dated 2000).
Converted amounts (≈) assume the structure as drawn. Read-outs that look alike come from different tables or passages of the source.

Assays:
Type in all cases: in vivo
[1] = test system: Bemisia tabaci; test: Film/vial test on whitefly (BT), susceptible strain SUD-S; settings: 48 h; for mortality at 100 ppm: read-out: BT (SUD-S) kill at 100 ppm
Protocol: (§1) Pesticidal activity was assessed against houseflies, mustard beetles, mites and whitefly using the following methods.
Whitefly (BT) (Bemisia tabaci)
Acetone solutions (0.100 ml) of the test compounds were placed in 10 ml glass vials and evaporated with rotation to deposit a film of the compound. Thirty adult whiteflies were placed inside the vial, then after 60 minutes, the treated insects were transferred onto untreated cotton leaf discs which were kept moist on a bed of agar gel. The temperature was maintained at 25° C. and mortality assessed after 48 hours. Three replicates were used at each of 5 to 7 dose levels per compound. LC50 values were calculated by using a computer software package ("Polo-PC" available from LeOra Software, Berkeley, Calif.). (See M. R. Cahill and B. Hackett in Proceedings Brighton Crop Protection Conference, 1992). The test was carried out using a susceptible strain of whitefly (SUD-S) which was collected in Sudan in 1978 from cotton.
(§2) The values given are LD50 (μg/insect) or LC50 (ppm solution of test compound) unless otherwise specified.

[2] = test system: Tetranychus urticae; test: Immersion test on mites (TU), susceptible strain GSS; settings: 72 h
Protocol: as §1
Mites (TU) (Tetranychus urticae)
25 adult female mites were immersed in 35 μl of a solution of the test compound in a 1:4 acetone-water mixture for 30 seconds. The treated insects were maintained at 21°±2° C. and kill was assessed 72 hours after treatment. […] Three replicates of 25 mites each were used at each dose rate and 5 or 6 dose rates were used per compound under test. LC50 values were calculated in ppm of the solution of the test compound per insect. The test was carried out using a susceptible strain of mites (GSS) supplied by Schering, AG, Berlin.
as §2

[3] = test system: Musca domestica; test: Topical test on houseflies (MD); settings: for MD (LD50): houseflies, topical on thorax, kill assessed 24 and 48 h
Protocol: as §1
Houseflies (MD) (Musca domestica)
Female flies were treated on the thorax with a one microliter drop of test compound dissolved in acetone. Two replicates of 15 flies were used at each dose rate and 6 dose rates were used per compound under test. After treatment, the flies were maintained at a temperature of 20°±1° C. and kill was assessed 24 and 48 hours after treatment. LD50 values were calculated in micrograms of test compound per fly (see Sawicki et al., Bulletin of the World Health Organisation, 35, 893 (1966) and Sawicki et al., Entomologia and Exp. Appli 10, 253, (1967).
as §2

[4] = test system: Phaedon cochleariae Fab; test: Topical test on mustard beetles (PC); settings: for PC LD50 (comparative examples): Table 7; for PC (LD50): mustard beetles, topical, 48 h
Protocol: as §1
Mustard beetles (PC) (Phaedon cochleariae Fab)
A one microliter drop of an acetone solution of the test compound was applied ventrally to adult mustard beetles using a micro drop applicator. The treated insects were maintained for 48 hours after which time kill was assessed. Two replicates each of 20 to 25 mustard beetles were used at each dose level and 5 dose levels were treated comparably. LD50 values were calculated as for houseflies.
as §2

[5] = test system: Myzus persicae; test: Aphicidal activity, aphid-dip
Protocol: (§3) Activity against resistant (R) and susceptible (S) strains of aphid (Myzus persicae) and Aphis gossypiae was assessed using the following two methods.
(§4) Entrapment rings of fluon were painted halfway up the inside of 4 cm lengths of glass tubing (1.5 cm diameter), and squares of insect-proof gauze were attached to one end of each tube by elastic bands. Fifteen apterous adults were then gently transferred into the tubes using a sable-hair brush, and the tube sealed with a second gauze square.
(§5) Tubes containing aphids were dipped into insecticide solutions for 10 seconds, dried on blotting paper, and then inverted and tapped to cause treated aphids to fall to the unimmersed end of each tube. Handling mortality (usually zero or very slight) was scored after 1 hour, when aphids were transferred onto chinese cabbage leaf-discs (35 mm diameter) on an agar bed (25 mm in depth) in disposible plastic containers (30 mm high) and confined by applying a ring of fluon to the exposed lip of the container. Containers were stored upright, without lids, in a constant environment facility maintained at 25° C. under continuous room lighting. Mortality was assessed at 24, 48 and 72 hours. Two replicates of 15 aphids each were used at each dose rate and 5 or 6 dose rates were used per compound under test.
(§6) The test was carried out using a susceptible strain of aphids (US1L) collected in the field in East Anglia, UK and an extremely resistant strain of aphids (794Jz) (R^3 esterase, sensitive ACHE) collected from glasshouses in the UK.
(§7) The values given are % mortality corrected for control data. The control comprised the test solution without active ingredient.

[6] = test system: Myzus persicae; test: Aphicidal activity, topical application; settings: 72 h
Protocol: as §3
Batches of 10-15 apterous adults were removed from stock cultures and placed on leaf discs (35 mm in diameter) cut from chinese cabbage and held on an agar bed (25 mm deep) in disposable plastic containers (30 mm high). Using a Burkhard micro-applicator aphids were dosed individually with a 0.25 μm droplet of chemical diluted to the required concentration in acetone. control insects were dosed with acetone only. Mortality and other effects were scored at 24 hour intervals up to and including 72 hour post-treatment, the end-point to which the results relate.
as §6, §7

[7] = test system: Aphis gossypiae; test: Aphicidal activity, aphid-dip; settings: strain 81-171B, read-out: Aphid-dip result, % kill A.G. 81-171B
Protocol: as §3, §4, §5, §7

[8] = read-out: BT LC50 (comparative examples)
[9] = read-out: TU LC50 (comparative examples)
[10] = resistant strain 794JZ, read-out: Aphid-dip result, % kill M.P. 794JZ
[11] = susceptible strain USIL, read-out: Aphid-dip result, % kill M.P. USIL
[12] = susceptible strain USIL, read-out: Topical aphid results, % kill M.P. USIL

CCCC1=C(O)C(=O)c2ccccc2C1=O [--(CH2)2 CH3, reference compound]
LC50 [1, 8]: 80 µg/mL (≈ 370 µM)

CCCCCCC1=C(O)C(=O)c2ccccc2C1=O [--(CH2)5 CH3, reference compound]
LC50 [2, 9]: 170 µg/mL (≈ 658 µM)
LC50 [1, 8]: 9.4 µg/mL (≈ 36.4 µM)

CCCCCCCCC1=C(O)C(=O)c2ccccc2C1=O [--(CH2)7 CH3, reference compound]
MD LD50 (comparative examples) ([3]; Table 7): 1.9 μg/insect
PC LD50 (comparative examples) [4]: 0.78 μg/insect

CCCCCCCCCCC1=C(O)C(=O)c2ccccc2C1=O [--(CH2)9 CH3, reference compound]
PC LD50 (comparative examples) [4]: 1.9 μg/insect

CCCCCCCCCCCCC1=C(O)C(=O)c2ccccc2C1=O [--(CH2)11 CH3, reference compound]
LC50 [2, 9]: < 60 µg/mL
LC50 [1, 8]: > 100 µg/mL

C[Si](C)(C)CCC1=C(OC(=O)c2ccccc2)C(=O)c2ccccc2C1=O [Example 1, 2-benzoyloxy-3-(2'-trimethylsilylethyl)-1,4-naphthoquinone]
MD (LD50) [3]: > 20 μg/insect
PC (LD50) [4]: > 20 μg/insect
LC50 ([2]; read-out: TU (GSS) (LC50)): 110 µg/mL (≈ 291 µM)

CC(=O)OC1=C(CC[Si](C)(C)C)C(=O)c2ccccc2C1=O [Example 4, 2-ethanoyloxy-3-(2'-trimethylsilylethyl)-1,4-naphthoquinone]
LC50 ([2]; read-out: TU (GSS) (LC50)): 45 µg/mL (≈ 142 µM)
LC50 ([1]; read-out: BT (SUD-S) (LC50)): 2.9 µg/mL (≈ 9.16 µM)
mortality at 100 ppm [5, 10]: 19%
mortality at 100 ppm [5, 11]: 19%

COC1(OC)C(O)=C(CC[Si](C)(C)C)C(=O)c2ccccc21 [Example 5, 2-hydroxy-3-(2'-trimethylsilylethyl)-1,4-naphthoquinone, 1-dimethyl acetal]
MD (LD50) [3]: > 20 μg/insect
PC (LD50) [4]: ~20 μg/insect
LC50 ([2]; read-out: TU (GSS) (LC50)): 41 µg/mL (≈ 128 µM)

C[Si](C)(C)CC1=C(O)C(=O)c2ccccc2C1=O [Example 6]
LC50 ([1]; read-out: BT (SUD-S) (LC50)): 1.7 µg/mL (≈ 6.53 µM)

C[Si](C)(C)CCCC1=C(O)C(=O)c2ccccc2C1=O [Example 7]
MD (LD50) [3]: 4.4 μg/insect
LC50 ([2]; read-out: TU (GSS) (LC50)): 6.4 µg/mL (≈ 22.2 µM)
mortality at 100 ppm [6, 12]: 45%
mortality at 100 ppm [5, 11]: 90%
mortality at 100 ppm [7]: 57%

C[Si](C)(C)CCCCC1=C(O)C(=O)c2ccccc2C1=O [Example 8]
MD (LD50) [3]: 1.8 μg/insect
LC50 ([2]; read-out: TU (GSS) (LC50)): 9.2 µg/mL (≈ 30.4 µM)
mortality at 1000 ppm ([6]; resistant strain 794JZ, 1000 ppm, read-out: Topical aphid results, % kill M.P. 794JZ): 100%
mortality at 100 ppm [6, 12]: 90%
mortality at 100 ppm [5, 10]: 100%
mortality at 100 ppm [5, 11]: 90%

C[Si](C)(C)CCCCCCC1=C(O)C(=O)c2ccccc2C1=O [Example 9, 2-Hydroxy-3(6'-trimethylsilylhexyl)-1,4-naphthoquinone]
MD (LD50) [3]: 1.8 μg/insect
LC50 ([2]; read-out: TU (GSS) (LC50)): 4.5 µg/mL (≈ 13.6 µM)
mortality at 100 ppm [6, 12]: 100%
mortality at 100 ppm [5, 11]: 100%
mortality at 100 ppm [7]: 71%

C[Si](C)(C)CCCCCCCCCCC1=C(O)C(=O)c2ccccc2C1=O [Example 13]
MD (LD50) [3]: 9.9 μg/insect
LC50 ([2]; read-out: TU (GSS) (LC50)): 2.2 µg/mL (≈ 5.69 µM)
mortality at 100 ppm [6, 12]: 90%
mortality at 100 ppm [5, 11]: 90%
mortality at 100 ppm [7]: 83%

CC[Si](C)(C)CCCCCCCCC1=C(O)C(=O)c2ccccc2C1=O [Example 14, 2-hydroxy-3(8-(dimethylethylsilyl)octyl)-1,4-naphthoquinone]
LC50 ([1]; read-out: BT (SUD-S) (LC50)): 15 µg/mL (≈ 40.3 µM)
mortality at 100 ppm [6, 12]: 74%

CC[Si](CC)(CC)CCCCCCCCC1=C(O)C(=O)c2ccccc2C1=O [Example 15]
LC50 ([2]; read-out: TU (GSS) (LC50)): 5.2 µg/mL (≈ 13 µM)
LC50 ([1]; read-out: BT (SUD-S) (LC50)): 22 µg/mL (≈ 54.9 µM)
mortality at 100 ppm [6, 12]: 58%

CCC[Si](CCC)(CCC)CCCCCCCCC1=C(O)C(=O)c2ccccc2C1=O [Example 16]
PC (LD50) [4]: > 20 μg/insect
mortality at 100 ppm [1]: 79%
mortality at 100 ppm [6, 12]: 24%

CCC[Si](C)(C)CCCCCCCCC1=C(O)C(=O)c2ccccc2C1=O [Example 17]
LC50 ([2]; read-out: TU (GSS) (LC50)): 8.4 µg/mL (≈ 21.7 µM)
LC50 ([1]; read-out: BT (SUD-S) (LC50)): 13 µg/mL (≈ 33.6 µM)
mortality at 100 ppm [6, 12]: 88%

C[Si]1(CCCCCCCCC2=C(O)C(=O)c3ccccc3C2=O)CCCC1 [Example 18, 2-Hydroxy-3-(8-(1-methyl-(tetramethylenesilyl))octyl)-1,4-naphthoquinone]
LC50 ([2]; read-out: TU (GSS) (LC50)): 3.6 µg/mL (≈ 9.36 µM)
mortality at 100 ppm [6, 12]: 59%

C[Si]1(CCCCCCCCC2=C(O)C(=O)c3ccccc3C2=O)CCCCC1 [Example 19, 2-hydroxy-3-(8-(1-methyl-(pentamethylenesilyl))octyl)-1,4-naphthoquinone]
mortality at 100 ppm [1]: 13%

C[Si](C)(C)CC=CC1=C(O)C(=O)c2ccccc2C1=O [Example 20, 2-hydroxy-3-(3-trimethylsilyl-1-propenyl)-1,4-naphthoquinone]
PC (LD50) [4]: > 20 μg/insect
LC50 ([2]; read-out: TU (GSS) (LC50)): 21 µg/mL (≈ 73.3 µM)
LC50 ([1]; read-out: BT (SUD-S) (LC50)): 30 µg/mL (≈ 105 µM)

CC(=O)OC1=C(CCCCCCCCC[Si](C)(C)C)C(=O)c2ccccc2C1=O [Example 21, 2-ethanoyloxy-3-(9-trimethylsilylnonyl)-1,4-naphthoquinone]
LC50 ([2]; read-out: TU (GSS) (LC50)): 2 µg/mL (≈ 4.82 µM)
LC50 ([1]; read-out: BT (SUD-S) (LC50)): < 100 µg/mL
mortality at 100 ppm ([6]; resistant strain 794JZ, read-out: Topical aphid results, % kill M.P. 794JZ): 89%
mortality at 125 ppm ([6]; susceptible strain USIL, 125 ppm, read-out: Topical aphid results, % kill M.P. USIL): 66%
mortality at 100 ppm [5, 11]: 66%

CCC(=O)OC1=C(CCCCCCCCC[Si](C)(C)C)C(=O)c2ccccc2C1=O [Example 22, 2-propanoyloxy-3-(9-trimethylsilylnonyl)-1,4-naphthoquinone]
mortality at 100 ppm [6, 12]: 37%

C=COC(=O)OC1=C(CCCCCCCCC[Si](C)(C)C)C(=O)c2ccccc2C1=O [Example 23, 2-vinylcarbonato-3-(9-trimethylsilylnonyl)-1,4-naphthoquinone]
mortality at 100 ppm [1]: 32%
mortality at 100 ppm [6, 12]: 63%

CCOCOC1=C(CCCCCCCCC[Si](C)(C)C)C(=O)c2ccccc2C1=O [Example 24, 2-ethoxymethoxy-3-(9-trimethylsilylnonyl)-1,4-naphthoquinone]
mortality at 100 ppm [1]: 19%
mortality at 100 ppm [6, 12]: 16%
